PMC12261321, “Inhibitors of the Bacterioferritin Ferredoxin Complex Dysregulate Iron Homeostasis and Kill and Biofilm-Embedded Cells” (ACS Infectious Diseases, 2025)
In brackets after ≈: the same amount, converted by molar mass.

How the values were obtained:
[1] = Determination of compound aqueous solubility in M63 media; format: physicochemical; details: in M63 media at 35 °C
Procedure: Determination of Compound Aqueous Solubility. Compound stocks (100 mM in DMSO) were prepared from […]
powder and then further diluted with DMSO to prepare 20 mM working solutions, which were diluted as needed […]
in DMSO. 15 µL o f the DMSO solution was then d iluted to a final volume o f 1.0 mL in M63 media. Six solutions […]
were prepared for each compound, each with a distinct concentration and 1.5% DMSO (v/v). 700 µL of each […]
compound solution was transferred to a polystyrene 48-well plate (VWR), followed by acquisition of UV-vis […]
spectra (300 to 700 nm) with the aid of an Epoch 2 microplate reader (B i o Te k ). […]
Following the acquisition of UV-vis spectra, each of the wells in the plate was inspected under a […]
microscope for evidence of precipitation. Evidence of precipitation at any given concentration was determined by observing a shift in the baseline of the UV-vis spectra relative to the blank (M63 media) and/or evidence of visual precipitation with the aid of a micros cope. […]

recombinant Pa BfrB = target: T1, recombinant Pa BfrB (Pseudomonas aeruginosa, UniProt Q9HY79); assay: Dissociation constant (Kd), fluorescence quenching titration of apo Pa BfrB; format: binding, P. aeruginosa
T1 construct: made in house; host or cells: E. coli
T1 sequence (Q9HY79 whole entry): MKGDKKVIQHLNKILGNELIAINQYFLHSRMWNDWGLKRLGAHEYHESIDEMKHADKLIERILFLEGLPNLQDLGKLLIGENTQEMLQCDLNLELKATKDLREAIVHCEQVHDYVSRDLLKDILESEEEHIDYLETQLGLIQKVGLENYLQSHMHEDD
Procedure: Measurement of Dissociation Constant (Kd) R ecombinant Pa BfrB was expressed in E. coli and purified as previously reported.19 Apo-BfrB (devoid of heme) was utilized for the measurements to prevent heme-driven fluorescence quenching. A 0.5 mL solution contai ning 0.01 µM apo Pa-BfrB in PBS (pH = 7.4) containing0.5% DMSO was plac ed into a 1 cm quartz cuvette wh ere it was titrated with aliq uots of compound dissolved in a 50% (v/v) PBS/DMSO solution. The fluorescence quenching brought by the addition of each aliquot was monitored with the aid of an Agilent Cary Fluorometer , with excitation at 280 nm, emission at 320- 470 nm, 10 x10 nm slit width, and an average of 5 scans per spectrum. Th e binding assay included at least 8 aliquots spanning from ~ 0.1 […]
A control titration was carried out by titrati ng compound into PBS buffer. The Kd was cal culated by fitting the data to equation S4, w here Fb is the fraction bound and Fmax is the fraction bound at saturating compound concentration.
FFbb = FFmmmmmm ? [ccccmmccccccmmcc ]? (S4) […]

P. aeruginosa PAO1 = assay: Half maximal inhibitory concentration (IC50), planktonic growth (CFU/mL); format: cell-based; details: planktonic cells, M63 media, 18 h
Procedure: Measurement of Half Maximal Inhibitory Concentration (IC50). IC50 values were determined as reported earlier13 with some modifications. Compound stock solutions in DMSO (100 mM and 10 mM) were prepared from powd er. To prep are the cell susp ensions utilized in the measu rements, starter cultures o f P. aeru ginosa wer e diluted to an optical density at 600 nm (OD600) = 0.005 in fresh LB media (5 mL) and then cultured at 37°C and 220 rpm for 4 h prior to diluting to an OD600 = 0.0001 in M63. A small volume of compound stock solution w as further diluted in DMSO to 30 µL and then diluted in M63 cell suspension to a final volume of 2.0 mL. The resultant solution was placed in a well of a 96-well plate and then serially 2-fold diluted in M63 cell suspension to produce 6 distinct com pound concent rations, each with 1.5% DMSO. Th e plate was co ver ed and incubated for 18 h at 35 °C in a Synergy H1 plate reader (Biotek). The resultant cell cultures were serially diluted in PBS and then plated on PI Agar plates (PIA; BD biosciences) for counting viable cells (CFU/mL). The % growth was calculated from the ratio CFU/mL(t reat ed )/CFU/mL(untreated control). To calculate the IC50 values, the % growth was plotted as a function of compound concentration expressed as log[compound] ( µM), and fitted to equation S1 describing the sigmoid- shaped response pattern, 14 where b is the slope factor, max is the upper asymptote (plateau), and min is the lower asymptote. IC 50 values are the average and standard deviation from three independent experiments , each conducted with thr ee techni cal replicates.

A. baumannii 5075 = assay: MIC, broth microdilution in M63 media; format: cell-based; details: 20 h
Procedure: (§1) Measurement of Minimum Inhibitory Concentrations (MIC). The MIC of compounds and select ed antibiotics against three strains of A. baumannii (5075, ATCC 17988, and ATCC 19606) were determined via the broth microdilution method according to Clinical and Laboratory Standard Instit ute (CLSI) guidelines,15 but culturing […]
(§2) To establish a 2-fold dilution series of compound, 985 μ L of diluted cells was mixed with 15 μ L of compound […]
(§3) dissolved in DMSO, such that the resultant solution had the highest concentration of compound or antibiotic tested and 1.5% DMSO. To carry out the serial dilution from the highest compound concentration, a 150 μ L solution of higher concentration compound or antibiotic was mixed with 150 μ L of cell suspension containing 1.5% DMSO in the wells of a 96 well plate.
(§4) Th e 96 well plate was in cubated for 20 hat 35 °C with continuous orbital shaking (205 cpm) in an Epoch2 microplate reader (BioTek), monitoring the growth by […]
(§5) following the OD600. […]
(§6) FFFFFF = MMMMMMAA iiii ccllccbbiiiicccciilliiMMMMMMAA+ MMMMMMBB iiii ccllccbbiiiicccciilliiMMMMMMBB S2 Time Kill Assays. Time-kill assays were performed with A. baumannii 507 5 by the broth macro- dilution method in M63- medium containing 1.5% DMSO. An overnight culture was diluted to approximately 5 x10^5 CFU/mL in fresh M63 media. The test solutions were prepared by adding compound (KM-5- 35, or KM-5- 25) dissolved in DMSO to 5 mL of diluted cell suspension to yield a solution of the desired compound concentration and 1.5% DMSO, or by the addition of antibiotic dissolved in water and a small volume of DMSO to produce the desired

A. baumannii ATCC 17978 = assay: MIC, broth microdilution in M63 media; format: cell-based; details: 20 h
Procedure: as §1, §2, §3, §4, §5, §6

A. baumannii ATCC 19606 = assay: MIC, broth microdilution in M63 media; format: cell-based; details: 20 h
Procedure: as §1, §2, §3, §4, §5, §6

For `O=C1NC(=O)c2c(NCc3cc(Br)c(O)cc3O)cccc21` [SB-16-137], the solubility at 4 h [1] was 80 µM (≈ 29.1 µg/mL), the Kd (recombinant Pa BfrB) was 9 ± 0.4 µM and the IC50 (P. aeruginosa PAO1) was 37 ± 4 µM. For the same compound, the MIC (A. baumannii 5075) was greater than 80 µM, the MIC (A. baumannii ATCC 17978) was greater than 80 µM and the MIC (A. baumannii ATCC 19606) was greater than 80 µM.
In the case of `Cc1ccc(CNc2cccc3c2C(=O)NC3=O)c(O)c1` [EB-5-69], the solubility at 4 h [1] is reported as 80 µM (≈ 22.6 µg/mL), the Kd (recombinant Pa BfrB) is reported as 45 ± 6 µM and the “IC50, P. aeruginosa PAO1” value (P. aeruginosa PAO1) is reported as “Not active”. For the same compound, the MIC (A. baumannii 5075) was 80 µM (≈ 22.6 µg/mL), the MIC (A. baumannii ATCC 17978) was 80 µM (≈ 22.6 µg/mL) and the MIC (A. baumannii ATCC 19606) was 80 µM (≈ 22.6 µg/mL).
With `O=C1NC(=O)c2c(NCc3cc(Cl)ccc3O)ccc(Br)c21` [SB-16-51] the solubility at 4 h [1] was 20 µM (≈ 7.63 µg/mL), the Kd (recombinant Pa BfrB) was 13 ± 2 µM and the IC50 (P. aeruginosa PAO1) was 18 ± 3 µM. The MIC (A. baumannii 5075) was 10 µM (≈ 3.82 µg/mL), the MIC (A. baumannii ATCC 17978) was 15 µM (≈ 5.72 µg/mL) and the MIC (A. baumannii ATCC 19606) was 15 µM (≈ 5.72 µg/mL).
`O=C1NC(=O)c2c(NCc3cc(Br)ccc3O)cccc21` [KM-5-35, 4-((5-Bromo-2-hydroxybenzyl)amino)isoindoline-1,3-dione] gave a solubility at 4 h [1] of 60 µM (≈ 20.8 µg/mL), a Kd (recombinant Pa BfrB) of 9 ± 3 µM and an IC50 (P. aeruginosa PAO1) of 27 ± 3 µM. For the same compound, the MIC (A. baumannii 5075) was 40 µM (≈ 13.9 µg/mL), the MIC (A. baumannii ATCC 17978) was 30 µM (≈ 10.4 µg/mL) and the MIC (A. baumannii ATCC 19606) was 30 µM (≈ 10.4 µg/mL).
Work on `O=C1NC(=O)c2c(NCc3c(O)cccc3F)cccc21` [EB-5-71] yielded a solubility at 4 h [1] of 150 µM (≈ 42.9 µg/mL), a Kd (recombinant Pa BfrB) of 56 ± 10 µM and an IC50 (P. aeruginosa PAO1) of 80 ± 10 µM. It also gave an MIC (A. baumannii 5075) of 75 µM (≈ 21.5 µg/mL), an MIC (A. baumannii ATCC 17978) of 75 µM (≈ 21.5 µg/mL) and an MIC (A. baumannii ATCC 19606) of 75 µM (≈ 21.5 µg/mL).
For `Cc1cc(Br)cc(CNc2cccc3c2C(=O)NC3=O)c1O` [SB-16-106], the solubility at 4 h [1] was 30 µM (≈ 10.8 µg/mL), the Kd (recombinant Pa BfrB) was 3 ± 1 µM and the IC50 (P. aeruginosa PAO1) was 14 ± 4 µM. It also gave an MIC (A. baumannii 5075) of 20 µM (≈ 7.22 µg/mL), an MIC (A. baumannii ATCC 17978) of 15 µM (≈ 5.42 µg/mL) and an MIC (A. baumannii ATCC 19606) of 30 µM (≈ 10.8 µg/mL).
